Laboratory results from patent US20250090510A1, “eIF4G1-eIF1 INHIBITORS AND USE THEREOF” (YEDA RESEARCH AND DEVELOPMENT CO. LTD., priority 2022, published 2025).
pIC50: −log10 of the molar value. Like-named read-outs stand apart in the source and are kept apart here.

How the values were obtained:
[1] = tested on: HEK293T cells with eIF4G1 knockdown; assay: Puromycin labeling after control or eIF4G1 siRNA; type: cell-based, human; details: for pIC50: Homo sapiens, HEK-293T, 48 h, 3 h treatment, read-out: IC-50, puromycin labeling
Procedure: FIGS. 3A-F: i14G1-10 and i14G1-12 inhibit mRNA translation and sensitize cell survival of eIF4G1 and eIF1 depleted cells. (3A) In-vitro translation using rabbit reticulocyte lysate which was pre-incubated with different concentrations of i14G1-10 or i14G1-12 for 10 minutes followed by the addition of capped firefly luciferase mRNA. After 90 minutes at 30° C., the luminescence signal was measured and the IC50 was calculated. The data represents mean±SEM of 6 independent repeats. (3B) HEK293T cells were treated with DMSO (vehicle control), and sub-cytotoxic concentrations of i14G1-10 (20 μM) and i14G1-12 (10 μM) for 3h. Cell lysates were then subjected to sucrose gradient sedimentation to obtain polysome profiles. (3C) HEK293T cells were treated with the indicated concentrations of i14G1-10 and i14G-12 for 3 h, followed by the addition of puromycin (10 μg/ml) for 5 minutes, after which cells were lysed and analyzed by western blot using an anti-puromycin antibody and anti-GAPDH antibody that serves as a loading control. The graph represents the mean±SEM chemiluminescence signal intensity of puromycin labeling normalized to GAPDH of 3 independent experiments. The calculated IC-50 is shown. (3D) HEK293T cells were transfected with either control or eIF4G1 siRNA in the absence or presence of eIF4G1 expression plasmid. As the eIF4G1 siRNA pool is directed against the 3′UTR, which is absent from the eIF4G1 expression plasmid, the exogenous eIF4G1 is resistant to the siRNA. 48 h after transfection, cells were treated with the indicated concentrations of i14G1-10 and i14G-12 for 3 h, followed by a 5 minutes puromycin pulse as described in 3C. The graph represents the mean±SEM chemiluminescence signal intensity of puromycin labeling normalized to GAPDH of 3 independent experiments. The calculated IC-50 is shown. (3E) The graphs represent cell viability of the indicated cell lines in the presence of increasing concentrations of i14G1-10 and i14G1, analyzed by Luminescent Cell Viability Assay. […]

parental NIH3T3 cells = assay: Polysome profiling and real-time PCR in parental cells; type: cell-based, mouse; details: i14G1-10 30 μM, i14G1-12 15 μM, 3 h
[2] = tested on: Plasmodium falciparum NF54 strain; assay: Parasitemia assay in blood cultures; type: cell-based; details: i14G1-10 20 uM, i14G1-12 10 uM; 1 hour, wash, measured 24 hours later
Procedure: (§1) FIGS. 8A-B: (8A) Bar graph of percent parasitemia in blood samples treated with i14G1-10 (20 μM) and i14G1-12 (10 μM) for 1 hour. DMSO treatment was used as a negative control. *=pVal; <0.05, ***=pVal<0.001 (8B) Photograph of a western blot and corresponding gel total protein staining of P. falciparum blood cultures treated with the inhibitors with or without the addition of puromycin. DMSO treatment and untreated cultures were used as a negative control.
From the same flask with -3-4% parasitemia, parasites were plated at 5 ml/well into six well-plates. To the trophozoite stage of development, i14G1-10, i14G1-12, or DMSO, were added and incubated at 37° C. with shaking. After one hour of incubation, from each sample, 1 ml of culture was taken. […]
The next day, the parasitemia (the number of iRBCs divided by the number of total RBCs) was measured by microscopy. The gold-standard method for identifying and quantifying malaria parasites as disclosed in Murphy et al., 2013, “Malaria diagnostics in clinical trials.” Am J Trop Med Hyg., 89(5):824-39, herein incorporated by reference in its entirety, was used. […] Infected RBCs were quantified by eye. No less than 30 fields of view were counted to find the final parasitemia percent.
Parasitaemia levels were measured 24 hours later.

[3] = tested on: P. falciparum translation; assay: Puromycin incorporation western blot in P. falciparum blood cultures; type: cell-based, Plasmodium falciparum; details: i14G1-10 20 uM, i14G1-12 10 uM; 1 hour, puromycin 5 minutes
Procedure: as §1
Next, the method of action that caused the growth/survival inhibition was tested. […] Puromycin labels newly synthesized proteins and cell lysates were analysed by western blot with anti-puromycin antibody (FIG. 8B).

[4] = Analysis of uptake (intracellular levels) by LC-MS; type: in vitro ADME; details: for concentration by LC-MS, Media: Media (amount applied)
Procedure: To determine the intracellular levels of i14G1-10 and i14G1-12, cells treated with these drugs for 3 h were extensively washed and then analyzed by LC-MS. Both compounds were detected within the cells, but the amount of i14G1-12 was substantially lower than the amount that was applied (Table 4).

OVCAR8 = assay: CellTiter-Glo luminescent cell viability assay; type: cell-based; details: ovarian cancer (OVCAR8), increasing concentrations, 48 h
Procedure: (§2) FIGS. 3A-F: i14G1-10 and i14G1-12 inhibit mRNA translation and sensitize cell survival of eIF4G1 and eIF1 depleted cells. (3A) In-vitro translation using rabbit reticulocyte lysate which was pre-incubated with different concentrations of i14G1-10 or i14G1-12 for 10 minutes followed by the addition of capped firefly luciferase mRNA. After 90 minutes at 30° C., the luminescence signal was measured and the IC50 was calculated. The data represents mean±SEM of 6 independent repeats. (3B) HEK293T cells were treated with DMSO (vehicle control), and sub-cytotoxic concentrations of i14G1-10 (20 μM) and i14G1-12 (10 μM) for 3h. Cell lysates were then subjected to sucrose gradient sedimentation to obtain polysome profiles. (3C) HEK293T cells were treated with the indicated concentrations of i14G1-10 and i14G-12 for 3 h, followed by the addition of puromycin (10 μg/ml) for 5 minutes, after which cells were lysed and analyzed by western blot using an anti-puromycin antibody and anti-GAPDH antibody that serves as a loading control. The graph represents the mean±SEM chemiluminescence signal intensity of puromycin labeling normalized to GAPDH of 3 independent experiments. The calculated IC-50 is shown. (3D) HEK293T cells were transfected with either control or eIF4G1 siRNA in the absence or presence of eIF4G1 expression plasmid. As the eIF4G1 siRNA pool is directed against the 3′UTR, which is absent from the eIF4G1 expression plasmid, the exogenous eIF4G1 is resistant to the siRNA. 48 h after transfection, cells were treated with the indicated concentrations of i14G1-10 and i14G-12 for 3 h, followed by a 5 minutes puromycin pulse as described in 3C. The graph represents the mean±SEM chemiluminescence signal intensity of puromycin labeling normalized to GAPDH of 3 independent experiments. The calculated IC-50 is shown. (3E) The graphs represent cell viability of the indicated cell lines in the presence of increasing concentrations of i14G1-10 and i14G1, analyzed by Luminescent Cell Viability Assay. (3F) Pie charts showing the cell cycle distribution of HEK293T cells treated with DMSO, i14G1-10 and i14G1-12.
(§3) The indicated cell lines in 96-well plates were treated with increasing concentrations of i14G1-10 and i14G1-12. After 48 h, cells were subjected to cell viability measurement using CellTiter-Glo Luminescent Assay (Cat no. G7571, Promega).
(§4) This was true in breast cancer (MCF7), lung cancer (A549), colorectal cancer (HCT116), ovarian cancer (OVCAR8) and in a bone cancer sarcoma cell line (U20S). To examine whether the growth defect is associated with cell cycle progression, control and drug treated cells were subjected to DNA staining by propidium iodide and then a flow cytometry analysis to determine their distribution in the sub-G1 (dead cells), G1, S and G2/M phases of the cell cycle.

HCT116 = assay: CellTiter-Glo luminescent cell viability assay; type: cell-based; details: colorectal cancer (HCT116), increasing concentrations, 48 h
Procedure: as §2, §3, §4

A549 = assay: CellTiter-Glo luminescent cell viability assay; type: cell-based; details: lung cancer (A549), increasing concentrations, 48 h
Procedure: as §2, §3, §4

[5] = cells treated 3 h, extensively washed

Row | SMILES | inhibition of translation upon depletion of eIF4G1 ([1]; eIF4G1 siRNA vs control siRNA) | overall translation, polysome to monosome ratio (P/M) (parental NIH3T3 cells) | translation of ISR genes in polysome fractions (parental NIH3T3 cells) | reduction of parasite levels (parasitaemia) [2] | protein synthesis (puromycin incorporation) [3] | concentration by LC-MS, Media [4] | concentration by LC-MS, i14G1-10 treated cells [4, 5] | concentration by LC-MS, i14G1-12 treated cells [4, 5] | growth/survival (OVCAR8) | growth/survival (HCT116) | growth/survival (A549) | pIC50 ([1]; control siRNA) | pIC50 ([1]; eIF4G1 siRNA knockdown)
1 | O=C(/C=C/Sc1ccc(C(F)(F)F)cn1)c1ccccc1 [i14G1-10] | enhanced | significant reduction in translation efficiency | upregulated | 42% | inhibited protein synthesis | 6200 ng/mL | 1130 ± 40 ng/mL | Not detected | inhibited the growth/survival | inhibited the growth/survival | inhibited the growth/survival |  | 
2 | Cn1ccnc1S/C(=C/C=C(C#N)C#N)c1ccc(Cl)cc1 [i14G1-12] |  | significant reduction in translation efficiency | upregulated | 69% | inhibited protein synthesis | 3300 ng/mL | Not detected |  | inhibited the growth/survival | inhibited the growth/survival | inhibited the growth/survival | 5.25 | 4.10
